ChEMBL document CHEMBL5365397, “Synthesis and biological evaluation of biotinylated ZJ-101” (Bioorg Med Chem Lett, 2023)

Columns and labels:
[1] = system: SF-295; experiment: Growth inhibition of human SF-295 cells measured after 48 hrs by SRB assay; format: functional
[2] = system: MDA-MB-231; experiment: Growth inhibition of human MDA-MB-231 cells measured after 48 hrs by SRB assay; format: functional
[3] = system: HT-29; experiment: Growth inhibition of human HT-29 cells measured after 48 hrs by SRB assay; format: functional, cell-based; conditions: HT-29, 48 h
[4] = system: HCT-116; experiment: Growth inhibition of human HCT-116 cells measured after 48 hrs by SRB assay; format: functional, cell-based; conditions: HCT-116, 48 h
[5] = system: MCF7; experiment: Antiproliferative activity against human MCF7 cells by Alamar Blue assay; format: functional, cell-based
[6] = system: MDA-MB-231; experiment: Antiproliferative activity against human MDA-MB-231 cells by Alamar Blue assay; format: functional, cell-based
[7] = system: SF-295; experiment: Antiproliferative activity against human SF-295 cells by Alamar Blue assay; format: functional, cell-based

CC(=O)N[C@H](C)[C@@H](O)[C@@H](C)[C@@H]1OC(=O)/C=C/C=C(C)\C=C\[C@]2(C)CCC=C[C@@H]2/C=C(C)/C=C/[C@H]1C
GI50 [1]: < 0.01 µM
GI50 [2]: < 0.01 µM
IC50 [3]: 0.0075 µM
IC50 [4]: 0.0527 µM
IC50 [5]: 0.0408 µM
IC50 [6]: 0.0611 µM

CC1=C/C=C/C(=O)O[C@@H]([C@H](C)[C@H](O)[C@@H](C)NC(=O)CCOCCOCCOCCOCCNC(=O)CCCC[C@@H]2SC[C@@H]3NC(=O)N[C@@H]32)[C@H](C)/C=C/C(C)=C/[C@H]2C=CCC[C@@]2(C)\C=C\1
IC50 [7]: > 5 µM
IC50 [5]: > 5 µM
IC50 [6]: > 5 µM
